Laboratory results published in paper PMC13576449, “Small-Molecule Activators of PRMT1: Discovery, SAR Analyses, and Proapoptotic Effects in Pancreatic Cancer Cells” (Journal of Medicinal Chemistry, 2026).

Columns and labels:
PANC-1 cells = experiment: CaspaseGlo 3/7 apoptosis assay, PANC-1; assay type: cell-based, human; conditions: 72 h
Procedure: (§1) 6 Effect of small-molecule modulators on gemcitabine-induced apoptosis and tumor growth of PDAC cells. […] After 2 h, gemcitabine (GEM) was added at increasing concentrations (10 and 25 nM) or not (−) for another incubation of 72 h. Subsequently, the luminescence-based caspase3/7 assay was performed. The activity of caspase 3/7 in treated cells was normalized to the activity measured in untreated cells (dark gray bar), which was set to 1 (mean SD, n = 6 for PANC-1 and n = 4 for PaTu8988T; *: p ≤ 0.05, **: p ≤ 0.01, ***: p ≤ 0.001, using the student t-test). […] After 24 h, gemcitabine (GEM, 1 μM) was added (+) or not (−) for another incubation of 48 h. Subsequently, the apoptotic cell fraction was quantified in % by flow cytometry using FITC-labeled Annexin V (AV) and propidium iodide (PI) staining (in B: mean ± SD, n = 6 for PANC-1 and n = 5 for PaTu8988T; **: p ≤ 0.01, ***: p ≤ 0.001, ****: p ≤ 0.0001, using the student t-test). […] Viable cells are AV/PI double-negative (AV–/PI–, lower left quadrant, Q4), early apoptotic cells are AV single-positive (AV+/PI– upper left quadrant, Q1), late apoptotic cells are AV/PI double-positive (AV+/PI+, upper right quadrant, Q2), and necrotic cells are PI single-positive (AV–/PI+, lower right quadrant, Q3). The sum of early and late apoptotic cell numbers ([…] in %) is indicated in red. D-G: The workflow of the PDAC xenograft experiments in mice is depicted in D. PANC-1 cells (2 × 10^6 cells/mouse) were subcutaneously (s.c.) injected in the right flank of female athymic nude mice. Small tumor nodules appeared 6 days post-engraftment. […] Tumor volumes were measured every second day using a digital caliper. […] At the end of the 2 weeks, mice were sacrificed and tumors were dissected (F).
(§2) For quantification of apoptosis using the CaspaseGlo 3/7 assay (Promega), PANC-1 and PaTu8988T cells were seeded in triplicates in white 96-well plate (5 × 10^3 cells/well) and cultured in the absence or presence of compounds. After 2 h, as soon as the cells had settled, gemcitabine was added or not, and cells were incubated for another 72 h. Subsequently, the caspase3/7 activity was measured using the luminescence-based CaspaseGLO-3/7 assay (Promega). To this end, the CaspaseGlo reagent was subsequently added to the cells at a 1:1 ratio and incubated at room temperature and under agitation for 30 min protected from light. The luminescence measurements were carried out using a microplate reader (Mithras LB 940, Berthold).

PaTu8988T cells = experiment: CaspaseGlo 3/7 apoptosis assay, PaTu8988T; assay type: cell-based, human; conditions: 72 h
Procedure: as §1, §2

[1] = TR-07 10 μM or gemcitabine 10 and 25 nM
[2] = compound 10 μM, after 2 h gemcitabine 10 and 25 nM

CN(C)Cc1cccc(CN/C=C2\C(=O)NC(=O)c3ccccc32)c1.Cl [TR-07, (Z)-1-[3-({[(1,3-Dioxo-2,3-dihydroisoquinolin-4(1H)-lidene)methyl]amino}methyl)phenyl]-N,N-dimethylmethanaminium chloride]
apoptosis, caspase 3/7 activity, single agent (PANC-1 cells; [1]): did not significantly induce apoptosis
gemcitabine-induced apoptosis, caspase 3/7 activity, co-treatment (PANC-1 cells; [2]): further significantly enhanced
apoptosis, caspase 3/7 activity, single agent (PaTu8988T cells; [1]): did not significantly induce apoptosis
gemcitabine-induced apoptosis, caspase 3/7 activity, co-treatment (PaTu8988T cells; [2]): further significantly enhanced
